{"source": "patent US20060009478A1", "about": "“Methods for the treatment of back pain” (priority 2003, published 2006)", "key": {"IL6": {"system": "IL6", "test": "Plasma cytokine concentration, Pointilliste Human Th1/Th2 Cytokine Canvas", "assay_type": "in vivo", "settings": "OXY = oxycodone QID, BID/QID = combination drug of oxycodone and naltrexone BID/QID", "protocol": "(§1) Plasma samples from selected subjects in the clinical study were used to assay for the presence and concentration of selected cytokines.\n(§2) Plasma samples were analyzed using a commercial cytokine assay from Pointilliste (www.pointilliste.com) to quantify the concentrations of IL2, IL4, IL5, IL6, IL10, IL13, GM-CSF, interferon and TNFα. Plasma samples were separately analyzed for IL1αand IL1β, which were quantitated using a conventional cytokine assay by Pointilliste. The cytokine assay for the quantitation of IL2, IL4, IL5, IL6, IL10, IL13, GM-CSF, interferon and TNFα employed, Pointilliste's Human Th1/Th2 Cytokine Canvas product which contains binding sites for each of these nine cytokines.\n(§3) Two measurements (duplicates) for each cytokine were possible for each plasma sample applied to a canvas, since the canvas has two binding sites for each cytokine.\n(§4) Fifty-seven frozen human plasma samples containing EDTA as an anticoagulant were thawed on ice and transferred to a sterile 96-deep well polypropylene plate. The plate was centrifuged briefly at 4° C. to clarify the plasma. Aliquots of clarified plasma were removed for cytokine analysis, and the remaining samples in the 96-deep well polypropylene plate were stored at −80° C.\n(§5) The aliquots of clarified plasma were transferred to sterile non-protein binding 96-well polypropylene plates to enable parallel processing of the samples. Two different 96 well plates were used, and each received a subsample of the aliquots at different dilutions. Two dilutions (1 in 1 and 1 in 10) of each sample were assayed on two separate human Th1/Th2 cytokine canvases. In order to quantify the cytokine concentrations, standard curves were generated for each dilution. A mixture of 9 cytokines was run on each of the canvases and used to calculate a standard curve, which was used to determine the amount of each cytokine in the samples. The standard curves were plotted with the signal intensity as a function of the cytokine concentration in ng/ml. A CCD camera was used with Pointilliste's Canvas Analysis Tools software to generate data corresponding to cytokine concentrations."}, "IL10": {"system": "IL10", "test": "Plasma cytokine concentration, Pointilliste Human Th1/Th2 Cytokine Canvas", "assay_type": "in vivo", "settings": "OXY = oxycodone QID, BID/QID = combination drug of oxycodone and naltrexone BID/QID", "protocol": "as §1, §2, §3, §4, §5"}, "TNFα": {"system": "TNFα", "test": "Plasma cytokine concentration, Pointilliste Human Th1/Th2 Cytokine Canvas", "assay_type": "in vivo", "settings": "OXY = oxycodone QID, BID/QID = combination drug of oxycodone and naltrexone BID/QID", "protocol": "as §1, §2, §3, §4, §5"}, "IL2": {"system": "IL2", "test": "Plasma cytokine concentration, Pointilliste Human Th1/Th2 Cytokine Canvas", "assay_type": "in vivo", "settings": "OXY = oxycodone QID, BID/QID = combination drug of oxycodone and naltrexone BID/QID", "protocol": "as §1, §2, §3, §4, §5"}, "IL13": {"system": "IL13", "test": "Plasma cytokine concentration, Pointilliste Human Th1/Th2 Cytokine Canvas", "assay_type": "in vivo", "settings": "OXY = oxycodone QID, BID/QID = combination drug of oxycodone and naltrexone BID/QID", "protocol": "as §1, §2, §3, §4, §5"}, "interferon gamma": {"system": "interferon gamma", "test": "Plasma cytokine concentration, Pointilliste Human Th1/Th2 Cytokine Canvas", "assay_type": "in vivo", "settings": "OXY = oxycodone QID, BID/QID = combination drug of oxycodone and naltrexone BID/QID", "protocol": "as §1, §2, §3, §4, §5"}, "IL4": {"system": "IL4", "test": "Plasma cytokine concentration, Pointilliste Human Th1/Th2 Cytokine Canvas", "assay_type": "in vivo", "settings": "OXY = oxycodone QID, BID/QID = combination drug of oxycodone and naltrexone BID/QID", "protocol": "as §1, §2, §3, §4, §5"}, "[1]": {"system": "patients with moderate to severe chronic pain due to osteoarthritis of the hip or knee", "test": "Pain intensity (daily diary, 11-point numerical scale), 3-week osteoarthritis study", "assay_type": "in vivo, human", "settings": "ITT, LOCF, average of last two days of dosing week", "protocol": "A multicenter, randomized, double-blind, active- and placebo-controlled, dose escalation, clinical study was designed and conducted. […] During a 4- to 7-day washout period, patients stopped taking all of their pain medication other than acetaminophen (500 mg every 4-6 hours PRN (a maximum of 5 caplets per day)).\nPain Intensity was assessed by prompting the patient with the question, “How would you rate your overall pain intensity at this time?”, and the PI score was recorded in the clinic. Pain Intensity was also assessed by prompting the patient with the question, “How would you rate your overall pain intensity during the past 24 hours?”, and a daily PI diary score was recorded by the patient at bedtime. For both Pain Intensity prompts, the response was scored on an 11-point numerical scale (0=no pain and 10=severe pain).\nFor the efficacy analysis, endpoints were represented and analyzed by week. Missing efficacy data was imputed across weeks using the last-observation-carried-forward (LOCF) method. Thus, the primary procedure for the analysis of efficacy data was based on a LOCF approach.\nThe daily pain intensity ratings were summarized as follows. For each week, the pain intensity recorded on the last two full days of dosing within the week, restricted to Day 5 or later, was averaged. If only a single observation was available, it was used; otherwise, the endpoint was not defined. The pain intensity averages were represented as both (1) a change from baseline and (2) a percent change from baseline. The baseline value was defined as the average pain intensity over the last two values recorded during the baseline period; if necessary, a single value was used.\nFor primary analysis of data, the primary efficacy endpoint was the percent change from baseline in pain intensity at Week 3. Percent change in pain intensity was analyzed using ANOVA methods. The ANOVA model included factors for treatment, sex, and their interaction. Additional covariates could be added to the model for exploratory purposes. Pairwise treatment group comparisons were made using contrasts within the ANOVA framework. Testing employed Type III sums of squares. If the assumptions of the parametric tests were not valid, non-parametric tests were used."}, "[2]": {"settings": "individual measurements of plasma samples, listed as OXY"}, "[3]": {"settings": "treatment group mean, random sample of subjects"}, "[4]": {"settings": "11-point scale 0=no pain, 10=severe pain"}}, "note": "Where “and” joins values, the source holds several entries; their conditions need not be identical. Equal entries are not always repeated."}
{"molecule": "COc1ccc2c3c1O[C@H]1C(=O)CC[C@@]4(O)[C@@H](C2)N(C)CC[C@]314", "note": "[OXY QID, oxycodone]", "values": [{"measurement": "IL6 cytokine concentration", "setting": "IL6; [2]", "result": "0.04453 ng/mL and 0.0579 ng/mL and 0.06949 ng/mL and 0.0733 ng/mL and 0.07724 ng/mL and 0.0774 ng/mL and 0.1107 ng/mL and 0.1115 ng/mL and 0.1391 ng/mL and 0.1469 ng/mL and 0.3354 ng/mL and 0.3599 ng/mL and 0.5957 ng/mL and 0.604 ng/mL"}, {"measurement": "Mean of IL6 concentrations", "setting": "IL6; [3]", "result": 0.2, "unit": "ng/mL"}, {"measurement": "IL10 cytokine concentration", "setting": "IL10; [2]", "result": "0.07237 ng/mL and 0.2164 ng/mL and 0.2235 ng/mL and 0.2438 ng/mL and 0.2959 ng/mL and 0.3757 ng/mL and 0.9598 ng/mL and 1.236 ng/mL and 1.26 ng/mL and 1.394 ng/mL"}, {"measurement": "Mean of IL10 concentrations", "setting": "IL10; [3]", "result": 0.628, "unit": "ng/mL"}, {"measurement": "TNF cytokine concentration", "setting": "TNFα; [2]", "result": "0.05312 ng/mL and 0.05316 ng/mL and 0.05332 ng/mL and 0.06095 ng/mL and 0.1469 ng/mL and 0.2 ng/mL and 0.5152 ng/mL and 0.5153 ng/mL"}, {"measurement": "Mean of TNF concentrations", "setting": "TNFα; [3]", "result": 0.2, "unit": "ng/mL"}, {"measurement": "IL2 cytokine concentration", "setting": "IL2; [2]", "result": "0.1202 ng/mL and 0.1501 ng/mL and 0.1613 ng/mL and 0.1672 ng/mL and 0.208 ng/mL and 0.2689 ng/mL and 0.3259 ng/mL and 0.4012 ng/mL and 0.4755 ng/mL and 0.5532 ng/mL and 0.7233 ng/mL and 1.583 ng/mL and 1.817 ng/mL and 0.092 ng/mL"}, {"measurement": "Mean of IL2 concentrations", "setting": "IL2; [3]", "result": 0.503, "unit": "ng/mL"}, {"measurement": "IL13 cytokine concentration", "setting": "IL13; [2]", "result": "2.362 ng/mL and 3.291 ng/mL and 3.392 ng/mL and 0.06466 ng/mL and 0.073 ng/mL and 0.1092 ng/mL and 0.1415 ng/mL and 0.1418 ng/mL and 0.1451 ng/mL and 0.1509 ng/mL and 0.169 ng/mL and 0.2847 ng/mL and 0.3385 ng/mL and 0.37 ng/mL and 0.6256 ng/mL and 0.941 ng/mL and 1.09 ng/mL and 2.079 ng/mL"}, {"measurement": "Mean of IL13 concentrations", "setting": "IL13; [3]", "result": 0.876, "unit": "ng/mL"}, {"measurement": "IFN cytokine concentration", "setting": "interferon gamma; [2]", "result": "0.07226 ng/mL and 0.07442 ng/mL and 0.2197 ng/mL and 0.2407 ng/mL"}, {"measurement": "Mean of IFN concentrations", "setting": "interferon gamma; [3]", "result": 0.152, "unit": "ng/mL"}, {"measurement": "IL4 cytokine concentration", "setting": "IL4; [2]", "result": "0.0907 ng/mL and 0.09132 ng/mL and 0.1379 ng/mL and 0.1411 ng/mL and 0.2369 ng/mL and 0.2651 ng/mL and 0.4655 ng/mL and 0.4725 ng/mL"}, {"measurement": "Mean of IL4 concentrations", "setting": "IL4; [3]", "result": 0.238, "unit": "ng/mL"}, {"measurement": "Pain intensity, actual value at Week 1, mean", "setting": "[1]; FEMALE, 11-point scale", "result": 6.2}, {"measurement": "Pain intensity, actual value at Week 1, median", "setting": "[1]; FEMALE, 11-point scale", "result": 6.3}, {"measurement": "Pain intensity, actual value at Week 2, mean", "setting": "[1]; FEMALE, 11-point scale", "result": 5.9}, {"measurement": "Pain intensity, actual value at Week 2, median", "setting": "[1]; FEMALE, 11-point scale", "result": 6.3}, {"measurement": "Pain intensity, actual value at Week 3, mean", "setting": "[1]; FEMALE, 11-point scale", "result": 5.9}, {"measurement": "Pain intensity, actual value at Week 3, median", "setting": "[1]; FEMALE, 11-point scale", "result": 6.0}, {"measurement": "Pain intensity, percent change from baseline to Week 1, mean", "setting": "[1]", "result": "−18.4", "unit": "%"}, {"measurement": "Pain intensity, percent change from baseline to Week 1, median", "setting": "[1]", "result": "−16.7", "unit": "%"}, {"measurement": "Pain intensity, percent change from baseline to Week 2, mean", "setting": "[1]", "result": "−22.9", "unit": "%"}, {"measurement": "Pain intensity, percent change from baseline to Week 2, median", "setting": "[1]", "result": "−20.0", "unit": "%"}, {"measurement": "Pain intensity, percent change from baseline to Week 3, median", "setting": "[1]", "result": "−20.0", "unit": "%"}, {"measurement": "Pain intensity, actual value at Week 1, mean", "setting": "[1]; [4]", "result": 6.1}, {"measurement": "Pain intensity, actual value at Week 1, median", "setting": "[1]; [4]", "result": 6.0}, {"measurement": "Pain intensity, actual value at Week 2, mean", "setting": "[1]; [4]", "result": 5.8}, {"measurement": "Pain intensity, actual value at Week 2, median", "setting": "[1]; [4]", "result": 6.0}, {"measurement": "Pain intensity, actual value at Week 3, mean", "setting": "[1]; [4]", "result": 5.6}, {"measurement": "Pain intensity, actual value at Week 3, median", "setting": "[1]; [4]", "result": 5.5}, {"measurement": "Pain intensity, percent change from baseline to Week 3, mean", "setting": "[1]; primary efficacy endpoint", "result": "−24.6", "unit": "%"}, {"measurement": "Pain intensity, actual value at Week 2, mean", "setting": "[1]; MALE, 11-point scale", "result": 5.5}, {"measurement": "Pain intensity, actual value at Week 2, median", "setting": "[1]; MALE, 11-point scale", "result": 5.5}, {"measurement": "Pain intensity, actual value at Week 3, mean", "setting": "[1]; MALE, 11-point scale", "result": 5.0}, {"measurement": "Pain intensity, actual value at Week 3, median", "setting": "[1]; MALE, 11-point scale", "result": 4.5}, {"measurement": "Pain intensity, actual value at Week 1, mean", "setting": "[1]; males, 11-point scale", "result": 5.9}, {"measurement": "Pain intensity, actual value at Week 1, median", "setting": "[1]; males, 11-point scale", "result": 6.0}]}
